Results on five compounds are retold here after US4966900A, “Cephalosporin β-lactam compound and medicinal composition” (priority 1986, dated 1990).

Among the test systems are S. marcescens GN10857; P. cepacia OF189; E. coli GN5482; P. vulgaris GN7919; E. colacae GN7471; P. aeruginosa 5D58-1; C. freundii GN7391; K. pneumoniae 4at521; E. coli ML4707; P. aeruginosa 4au542; S. aureus Smith; C. freundii 5D60-1; C. freundii 1U589; C. freundii 1U692.
Assay in all cases: MIC
The test system of the next experiment is E. cloacae 908RN. The settings on record: Enterobacter cloacae.
A further experiment deals with P. maltophilia OF247. The following applies: Stenotrophomonas maltophilia.
In a further experiment the test system is P. aeruginosa GN10362. The settings on record: Pseudomonas aeruginosa, GN10362.
In the next experiment the test system is S. aureus IAA498. In kind it is cell-based. The settings on record: Staphylococcus aureus. The procedure: (§1) The minimum inhibition concentrations (MIC) of the compounds obtained in the respective examples described above were measured according to the standard method of Japanese Chemotherapy Association.
Another experiment deals with E. cloacae 1V25. The following applies: Enterobacter cloacae.
A further experiment relates to C. freundii 1R526. The following applies: Citrobacter freundii, 1R526.
A further experiment relates to E. cloacae 5D52-2. The following applies: Enterobacter cloacae, 5D522.
For the next experiment, the system named is E. cloacae 5D63-2. The settings on record: Enterobacter cloacae, 5D632.
Another experiment relates to C. freundii 1R527. The settings on record: Citrobacter freundii, 1R527.
A further experiment concerns C. freundii 1R524. The settings on record: Citrobacter freundii, 1R524.
A further experiment concerns E. cloacae 1Y247. The experiment is classed as cell-based. The settings on record: Enterobacter cloacae, Table 6, read-out: MIC. The procedure:
as §1

For another experiment, the system named is C. freundii 1R523. The settings on record: Citrobacter freundii, 1R523.
Where [1] appears, read: Serratia marcescens, GN10857, S. marcescens GN10857, Table 5.
Setting [2] is: Burkholderia cepacia, OF189, P. cepacia OF189, Table 5.
Setting [3] is: Escherichia coli, GN5482, E. coli GN5482, Table 5.
Setting [4] is: Pseudomonas aeruginosa, 5D581, P. aeruginosa 5D58-1, Table 5.
[5] abbreviates: Citrobacter freundii, GN7391, C. freundii GN7391, Table 5.
Where [6] appears, read: Citrobacter freundii, GN7391, C. freundii GN7391, Table 6.
Where [7] appears, read: Escherichia coli, ML4707, E. coli ML4707, Table 5.
Where [8] appears, read: Pseudomonas aeruginosa, 4AU542, P. aeruginosa 4au542, Table 5.

Values after ≈ are worked out from the molar mass of the structure shown. Counter-ions that a name gives are not always drawn.

In the case of `Cc1cc(SCC2=C(C(=O)O)N3C(=O)C(NC(=O)C(=NOC(C)(C)C(=O)NNC(=O)c4ccc(O)c(O)c4)c4csc(N)n4)[C@H]3SC2)n2nc(C(F)(F)F)nc2n1` (some centres unmarked) [Example 55, 7-{2-[2-Amino-1,3-thiazol-4-yl]-2-[1-(3-(3,4-dihydroxybenzoyl)carbazoyl)-1-methylethoxyimino]acetamido}-3-[(5-methyl-2-trifluoromethyl-s-triazolo[1,5-a]pyrimidin-7-yl)-thiomethyl]-3-cephem-4-carboxylic acid], the MIC came out at 12.5 µg/mL (≈ 14.7 µM) against E. cloacae 908RN (E. colacae 908RN, Table 7); 1.56 µg/mL (≈ 1.83 µM) in the experiment with S. marcescens GN10857 (Serratia marcescens, GN10857, S. marcescens GN10857, Table 7); 0.05 µg/mL (≈ 0.0587 µM) against P. cepacia OF189 (Burkholderia cepacia, OF189, P. cepacia OF189, Table 7); 0.025 µg/mL (≈ 0.0293 µM) in the experiment with E. coli GN5482 (Escherichia coli, GN5482, E. coli GN5482, Table 7); 1.56 µg/mL (≈ 1.83 µM) against P. maltophilia OF247 (Table 7); 1.56 µg/mL (≈ 1.83 µM) in the experiment with P. vulgaris GN7919 (Proteus vulgaris, GN7919). In addition, the MIC against E. colacae GN7471 (Table 7) stood at 25 µg/mL (≈ 29.3 µM); against P. aeruginosa GN10362, 0.39 µg/mL (≈ 0.458 µM); in the experiment on P. aeruginosa 5D58-1 (Pseudomonas aeruginosa, 5D581, P. aeruginosa 5D58-1, Table 7), 0.39 µg/mL (≈ 0.458 µM); in the experiment with C. freundii GN7391 (Citrobacter freundii, GN7391, C. freundii GN7391, Table 7), 6.25 µg/mL (≈ 7.34 µM); in the experiment with K. pneumoniae 4at521 (Klebsiella pneumoniae, 4AT521), 0.025 µg/mL (≈ 0.0293 µM); with E. coli ML4707 (Escherichia coli, ML4707, E. coli ML4707, Table 7) it was 0.05 µg/mL (≈ 0.0587 µM). Moreover, the MIC against P. aeruginosa 4au542 (Pseudomonas aeruginosa, 4AU542, P. aeruginosa 4au542, Table 7) stood at 0.39 µg/mL (≈ 0.458 µM); with S. aureus IAA498 (Table 7), 6.25 µg/mL (≈ 7.34 µM); in the experiment with S. aureus Smith (Staphylococcus aureus, Table 7), 6.25 µg/mL (≈ 7.34 µM).
Regarding cephazoline [CAZ, reference compound], the MIC against C. freundii 5D60-1 (C. freundii 5D60-1, Table 6) is greater than 100 µg/mL; in the experiment on C. freundii 5D60-1 (C. freundii 5D60-1, Table 8) it was greater than 100 µg/mL; with C. freundii 1U589 (C. freundii 1U589, Table 6), 100 µg/mL; against C. freundii 1U589 (C. freundii 1U589, Table 8), 100 µg/mL; with S. marcescens GN10857 (S. marcescens GN10857, Table 5), 1.56 µg/mL; in the experiment with P. cepacia OF189 (P. cepacia OF189, Table 5), 3.13 µg/mL. Further, the MIC against E. coli GN5482 (E. coli GN5482, Table 5) is 0.78 µg/mL; against P. vulgaris GN7919 (P. vulgaris Gn7919, Table 5), 1.56 µg/mL; in the experiment with E. colacae GN7471 (Table 5), 3.13 µg/mL; in the experiment on P. aeruginosa 5D58-1 (P. aeruginosa 5D58-1, Table 5), 0.78 µg/mL; against C. freundii 1U692 (C. freundii 1U692, Table 6), 100 µg/mL; with C. freundii 1U692 (C. freundii 1U692, Table 8), 50.000 µg/mL. Further, the MIC is greater than 100.00 µg/mL against C. freundii GN7391 (C. freundii GN7391, Table 5); greater than 100 µg/mL against C. freundii GN7391 (C. freundii GN7391, Table 6); 0.10 µg/mL in the experiment with K. pneumoniae 4at521 (K. pneumoniae 4at521, Table 5); 0.05 µg/mL against E. coli ML4707 (E. coli ML4707, Table 5); 1.56 µg/mL against P. aeruginosa 4au542 (P. aeruginosa 4au542, Table 5); 6.25 µg/mL against S. aureus Smith (Table 5).
As for `Cc1nc2c(C(=O)O)cnn2c(SCC2=C(C(=O)O)N3C(=O)C(NC(=O)C(=NOC(C)(C)C(=O)NNC(=O)c4ccc(O)c(O)c4)c4csc(N)n4)C3SC2)c1C` (centres unmarked) [Example 27, 7-{2-[2-Amino-1,3-thiazol-4-yl]-2-[1-(3-(3,4-dihydroxybenzoyl)carbazoyl)-1-methylethoxyimino]acetamide}-3-[(3-carboxy-5,6-dimethylpyrazolo[1,5-a]pyrimidin-7-yl)thiomethyl]-3-cephem-4-carboxylic acid.hydrochloride], the MIC amounted to 0.39 µg/mL with E. cloacae 1V25; 0.78 µg/mL in the experiment with E. cloacae 908RN (E. cloacae 908RN, Table 6); 0.39 µg/mL in the experiment with E. cloacae 908RN (E. colacae 908RN, Table 5); 6.25 µg/mL against C. freundii 5D60-1 (Citrobacter freundii, 5D601); 0.39 µg/mL against C. freundii 1U589 (Citrobacter freundii, 1U589); 0.1 µg/mL against C. freundii 1R526. Besides, the MIC against S. marcescens GN10857 (setting [1]) was 0.1 µg/mL; with P. cepacia OF189 (setting [2]), 0.012 µg/mL; in the experiment on E. coli GN5482 (setting [3]) it was less than 0.006 µg/mL; with P. maltophilia OF247 (Table 5), 0.2 µg/mL; against P. vulgaris GN7919 (Proteus vulgaris, GN7919), 0.39 µg/mL; with E. colacae GN7471 (Table 5) it was 0.78 µg/mL. The MIC with E. cloacae 5D52-2 stood at 0.1 µg/mL; with P. aeruginosa GN10362, 0.05 µg/mL; with P. aeruginosa 5D58-1 (setting [4]), 0.2 µg/mL; against E. cloacae 5D63-2, 0.2 µg/mL; against C. freundii 1U692 (Citrobacter freundii, 1U692) it was 0.2 µg/mL; against C. freundii GN7391 (setting [5]) it was 0.78 µg/mL. The minimal inhibitory concentration (MIC) in the experiment with C. freundii GN7391 (setting [6]) is 0.78 µg/mL; in the experiment on C. freundii 1R527 it was 0.1 µg/mL; in the experiment with K. pneumoniae 4at521 (Klebsiella pneumoniae, 4AT521) it was less than 0.006 µg/mL; in the experiment with C. freundii 1R524 it was 0.1 µg/mL; in the experiment on E. coli ML4707 (setting [7]), 0.012 µg/mL; against P. aeruginosa 4au542 (setting [8]) it was 0.2 µg/mL. The MIC in the experiment with E. cloacae 1Y247 is 0.78 µg/mL; against S. aureus IAA498 (Table 5), 50 µg/mL; in the experiment with S. aureus Smith (Staphylococcus aureus, Table 5), 25 µg/mL; with C. freundii 1R523, 0.2 µg/mL.
In the case of `Cc1nc2nc(C(=O)O)nn2c(SCC2=C(C(=O)O)N3C(=O)C(NC(=O)C(=NOC(C)(C)C(=O)NNC(=O)c4ccc(O)c(O)c4)c4csc(N)n4)C3SC2)c1C` (centres unmarked) [Example 41, 7-{2-[2-Amino-1,3-thiazol 4-yl]-2-[1-(3-(3,4-dihydroxybenzoyl)carbazoyl)-1-methylethoxyimino]acetamide}-3-[(2-carboxy-5,6-dimethyl-s-triazolo[1,5-a]pyrimidin-7-yl)-thiomethyl]-3-cephem-4-carboxylic acid.hydrochloride], the MIC was 1.56 µg/mL against E. cloacae 1V25; 0.2 µg/mL against E. cloacae 908RN (E. cloacae 908RN, Table 6); 0.2 µg/mL against E. cloacae 908RN (E. colacae 908RN, Table 5); 0.1 µg/mL in the experiment with C. freundii 5D60-1 (Citrobacter freundii, 5D601); 0.05 µg/mL against C. freundii 1U589 (Citrobacter freundii, 1U589); 0.025 µg/mL against C. freundii 1R526. For the same compound, the minimal inhibitory concentration (MIC) is 0.1 µg/mL against S. marcescens GN10857 (setting [1]); less than 0.006 µg/mL against P. cepacia OF189 (setting [2]); less than 0.006 µg/mL against E. coli GN5482 (setting [3]); 0.1 µg/mL against P. maltophilia OF247 (Table 5); 0.39 µg/mL in the experiment with P. vulgaris GN7919 (Proteus vulgaris, GN7919); 0.39 µg/mL against E. colacae GN7471 (Table 5). The minimum inhibitory concentration (MIC) in the experiment on E. cloacae 5D52-2 is 0.05 µg/mL; with P. aeruginosa GN10362 it was 0.1 µg/mL; with P. aeruginosa 5D58-1 (setting [4]), 0.39 µg/mL; in the experiment on E. cloacae 5D63-2 it was 0.1 µg/mL; against C. freundii 1U692 (Citrobacter freundii, 1U692), 0.05 µg/mL; in the experiment with C. freundii GN7391 (setting [5]) it was 0.39 µg/mL. Moreover, the minimal inhibitory concentration (MIC) against C. freundii GN7391 (setting [6]) is 0.39 µg/mL; in the experiment with C. freundii 1R527, 0.012 µg/mL; against K. pneumoniae 4at521 (Klebsiella pneumoniae, 4AT521) it was less than 0.006 µg/mL; in the experiment with C. freundii 1R524, 0.006 µg/mL; against E. coli ML4707 (setting [7]) it was less than 0.006 µg/mL; in the experiment on P. aeruginosa 4au542 (setting [8]) it was 0.2 µg/mL. The minimal inhibitory concentration (MIC) with E. cloacae 1Y247 was determined as 0.39 µg/mL; in the experiment with S. aureus IAA498 (Table 5) it was 50 µg/mL; with S. aureus Smith (Staphylococcus aureus, Table 5), 25 µg/mL; with C. freundii 1R523 it was 0.025 µg/mL.
As for `CC(C)(ON=C(C(=O)NC1C(=O)N2C(C(=O)O)=C(CSc3ccnc4ncnn34)CSC12)c1csc(N)n1)C(=O)NNC(=O)c1ccc(O)c(O)c1` (centres unmarked) [Example 38, 7-{2-[2-Amino-1,3-thiazol-4-yl]-2-[1-(3-(3,4-dihydroxybenzoyl)carbazoyl)-1-methylethoxyimino]acetamide}-3-[(s-triazolo[1,5-a]pyrimidin-7-yl)thiomethyl]-3-cephem-4-carboxylic acid.hydrochloride], the MIC was found to be 25 µg/mL in the experiment on E. cloacae 908RN (E. colacae 908RN, Table 5); 0.39 µg/mL against S. marcescens GN10857 (setting [1]); 0.025 µg/mL with P. cepacia OF189 (setting [2]); 0.025 µg/mL in the experiment with E. coli GN5482 (setting [3]); 0.78 µg/mL in the experiment on P. maltophilia OF247 (Table 5); 1.56 µg/mL with P. vulgaris GN7919 (Proteus vulgaris, GN7919). The minimal inhibitory concentration (MIC) was 3.13 µg/mL against E. colacae GN7471 (Table 5); 0.1 µg/mL in the experiment with P. aeruginosa GN10362; 0.39 µg/mL with P. aeruginosa 5D58-1 (setting [4]); 25 µg/mL with C. freundii GN7391 (setting [5]); 0.012 µg/mL with K. pneumoniae 4at521 (Klebsiella pneumoniae, 4AT521); 0.012 µg/mL in the experiment on E. coli ML4707 (setting [7]). Moreover, the minimal inhibitory concentration (MIC) in the experiment with P. aeruginosa 4au542 (setting [8]) came out at 0.1 µg/mL; with S. aureus IAA498 (Table 5) it was 3.13 µg/mL; in the experiment on S. aureus Smith (Staphylococcus aureus, Table 5), 1.56 µg/mL.
